Data reported in US20260365670A1, “EGFR INHIBITORS AND USES THEREOF” (DIZAL (JIANGSU) PHARMACEUTICAL CO., LTD., priority 2022, published 2026).
Where two headings read alike, the source gives them in different places.

Key:
EGFR Exon19Del = target: T1, EGFR Exon19Del (Homo sapiens, UniProt P00533, DEL746-750); experiment: Inhibition of EGFR Exon19Del biochemical enzymatic activity (HTRF); details: EGFR Exon19Del, 1 mM ATP, 1 h at room temperature, read-out: IC50 @Del19
T1 construct: purchased Carna Bio
Summary of the method: (§1)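 1 mM ATP, 1 μM biotin-TK peptide, 5 mM MgCl2, 1 mM MnCl2, 0.01% CHAPS, 1 mM DTT, 0.5% DMSO; 1 h RT; EDTA stop; HTRF 665/615 nm; IC50 via 4PL.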

EGFR (C797S L858R) = target: T2, EGFR (C797S L858R) (Homo sapiens, UniProt P00533, C797S/L858R); experiment: Inhibition of EGFR (C797S L858R) biochemical enzymatic activity (HTRF); details: EGFR (C797S L858R), 1 mM ATP, 1 h at room temperature, read-out: IC50 @L858-C797S
T2 construct: purchased signalchem
T2 sequence (P00533 25-1210 C797S/L858R): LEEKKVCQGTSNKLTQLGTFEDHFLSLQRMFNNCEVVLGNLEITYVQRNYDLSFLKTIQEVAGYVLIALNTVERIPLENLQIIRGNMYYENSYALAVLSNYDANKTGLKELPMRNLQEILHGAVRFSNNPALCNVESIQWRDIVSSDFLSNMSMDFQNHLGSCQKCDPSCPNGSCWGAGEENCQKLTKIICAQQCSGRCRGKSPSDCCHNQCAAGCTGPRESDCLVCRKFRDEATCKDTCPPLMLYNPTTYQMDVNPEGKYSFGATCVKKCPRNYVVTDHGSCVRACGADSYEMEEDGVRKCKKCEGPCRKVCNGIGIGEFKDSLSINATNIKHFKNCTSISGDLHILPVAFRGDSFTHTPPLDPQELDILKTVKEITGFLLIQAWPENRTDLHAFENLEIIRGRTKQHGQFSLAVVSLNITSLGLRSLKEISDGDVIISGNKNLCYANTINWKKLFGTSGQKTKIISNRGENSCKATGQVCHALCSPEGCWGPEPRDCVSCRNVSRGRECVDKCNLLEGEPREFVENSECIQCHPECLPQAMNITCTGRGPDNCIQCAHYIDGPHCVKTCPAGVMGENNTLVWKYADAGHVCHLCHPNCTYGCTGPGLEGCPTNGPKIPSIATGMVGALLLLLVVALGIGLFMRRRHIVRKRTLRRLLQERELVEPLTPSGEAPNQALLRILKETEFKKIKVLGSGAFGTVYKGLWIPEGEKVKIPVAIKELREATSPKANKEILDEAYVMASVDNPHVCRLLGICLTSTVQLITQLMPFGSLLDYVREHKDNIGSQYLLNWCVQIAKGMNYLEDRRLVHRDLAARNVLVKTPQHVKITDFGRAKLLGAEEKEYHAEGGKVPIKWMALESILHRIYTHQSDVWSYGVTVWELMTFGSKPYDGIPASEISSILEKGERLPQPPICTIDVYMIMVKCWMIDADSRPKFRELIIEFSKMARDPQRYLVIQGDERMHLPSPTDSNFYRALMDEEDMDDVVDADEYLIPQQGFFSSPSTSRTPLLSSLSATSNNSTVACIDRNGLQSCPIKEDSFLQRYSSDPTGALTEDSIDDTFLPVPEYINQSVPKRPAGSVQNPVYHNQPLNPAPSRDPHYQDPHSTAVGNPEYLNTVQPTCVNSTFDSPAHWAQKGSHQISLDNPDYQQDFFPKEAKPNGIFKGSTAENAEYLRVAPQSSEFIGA
Summary of the method: as §1

EGFR[T790M/C797S/L858R] = target: T3, EGFR[T790M/C797S/L858R] (Homo sapiens, UniProt P00533, C797S/L858R/T790M); experiment: Inhibition of EGFR[T790M/C797S/L858R] biochemical enzymatic activity (HTRF); details: EGFR[T790M/C797S/L858R], 1 mM ATP, 1 h at room temperature, read-out: IC50 @T790M- C797S - L858R
T3 construct: purchased Carna Bio
T3 sequence (P00533 25-1210 T790M/C797S/L858R): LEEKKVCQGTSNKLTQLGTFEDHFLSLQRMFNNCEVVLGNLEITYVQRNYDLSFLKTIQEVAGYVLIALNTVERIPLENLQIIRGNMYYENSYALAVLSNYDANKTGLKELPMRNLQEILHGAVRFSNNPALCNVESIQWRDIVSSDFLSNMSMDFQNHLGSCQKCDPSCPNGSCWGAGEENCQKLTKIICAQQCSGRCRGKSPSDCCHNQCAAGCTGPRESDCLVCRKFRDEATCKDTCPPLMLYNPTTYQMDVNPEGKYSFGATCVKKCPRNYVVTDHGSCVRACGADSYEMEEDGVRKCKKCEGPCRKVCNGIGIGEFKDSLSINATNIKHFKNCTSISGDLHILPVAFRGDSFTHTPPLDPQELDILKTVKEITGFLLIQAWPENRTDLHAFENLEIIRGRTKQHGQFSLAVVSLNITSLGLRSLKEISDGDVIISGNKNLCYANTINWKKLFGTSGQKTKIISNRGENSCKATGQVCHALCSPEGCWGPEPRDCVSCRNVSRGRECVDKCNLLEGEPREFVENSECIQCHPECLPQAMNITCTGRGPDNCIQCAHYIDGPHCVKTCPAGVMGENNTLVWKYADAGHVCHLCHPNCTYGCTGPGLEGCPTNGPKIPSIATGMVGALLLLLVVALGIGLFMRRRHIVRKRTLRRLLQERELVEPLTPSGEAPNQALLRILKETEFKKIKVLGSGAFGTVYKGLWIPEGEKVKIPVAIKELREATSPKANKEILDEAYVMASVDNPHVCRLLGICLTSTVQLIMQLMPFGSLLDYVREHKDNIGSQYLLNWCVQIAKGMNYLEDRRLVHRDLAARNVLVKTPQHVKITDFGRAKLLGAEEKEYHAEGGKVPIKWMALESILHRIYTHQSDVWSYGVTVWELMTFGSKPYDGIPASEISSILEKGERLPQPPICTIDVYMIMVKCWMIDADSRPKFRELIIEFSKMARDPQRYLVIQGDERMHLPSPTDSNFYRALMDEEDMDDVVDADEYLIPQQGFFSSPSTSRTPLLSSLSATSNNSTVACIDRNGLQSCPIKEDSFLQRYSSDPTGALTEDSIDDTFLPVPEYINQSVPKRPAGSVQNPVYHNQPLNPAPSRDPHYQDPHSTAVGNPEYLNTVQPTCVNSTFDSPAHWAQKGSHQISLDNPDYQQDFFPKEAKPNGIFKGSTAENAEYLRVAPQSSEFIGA
Summary of the method: as §1

EGFR L858R/T790M = target: T4, EGFR L858R/T790M (Homo sapiens, UniProt P00533, L858R/T790M); experiment: Inhibition of EGFR L858R/T790M biochemical enzymatic activity (HTRF); details: EGFR L858R/T790M, 1 mM ATP, 1 h at room temperature, read-out: IC50 @L858R-T790M
T4 construct: purchased Carna Bio
Summary of the method: as §1

EGFR Exon19Del/T790M = target: T5, EGFR Exon19Del/T790M (Homo sapiens, UniProt P00533, DEL746-750/T790M); experiment: Inhibition of EGFR Exon19Del/T790M biochemical enzymatic activity (HTRF); details: EGFR Exon19Del/T790M, 1 mM ATP, 1 h at room temperature, read-out: IC50 @Del19-T790M
T5 construct: purchased Carna Bio
T5 sequence (P00533 with tags, fused parts or gaps DEL746-750/T790M limits assumed): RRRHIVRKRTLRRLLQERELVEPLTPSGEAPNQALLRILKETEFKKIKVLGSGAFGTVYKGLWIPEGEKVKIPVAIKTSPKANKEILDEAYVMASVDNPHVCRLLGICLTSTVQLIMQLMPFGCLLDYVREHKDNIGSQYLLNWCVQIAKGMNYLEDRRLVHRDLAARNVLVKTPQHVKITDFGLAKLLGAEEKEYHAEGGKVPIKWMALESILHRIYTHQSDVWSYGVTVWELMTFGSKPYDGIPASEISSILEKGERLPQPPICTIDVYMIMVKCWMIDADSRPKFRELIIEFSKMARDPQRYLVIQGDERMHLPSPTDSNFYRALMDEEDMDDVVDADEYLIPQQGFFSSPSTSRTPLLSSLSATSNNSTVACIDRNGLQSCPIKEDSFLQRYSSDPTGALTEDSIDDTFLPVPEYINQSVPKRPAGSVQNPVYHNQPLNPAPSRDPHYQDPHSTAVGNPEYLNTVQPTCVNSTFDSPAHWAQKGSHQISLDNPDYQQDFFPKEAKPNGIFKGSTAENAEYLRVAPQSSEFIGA
Summary of the method: as §1

EGFR (d746-750 C797S) = target: T6, EGFR (d746-750 C797S) (Homo sapiens, UniProt P00533, C797S/DEL746-750); experiment: Inhibition of EGFR (d746-750 C797S) biochemical enzymatic activity (HTRF); details: EGFR (d746-750 C797S), 1 mM ATP, 1 h at room temperature, read-out: IC50 @Del19-C797S
T6 construct: purchased signalchem
T6 sequence (P00533 with tags, fused parts or gaps DEL746-750/C797S limits assumed): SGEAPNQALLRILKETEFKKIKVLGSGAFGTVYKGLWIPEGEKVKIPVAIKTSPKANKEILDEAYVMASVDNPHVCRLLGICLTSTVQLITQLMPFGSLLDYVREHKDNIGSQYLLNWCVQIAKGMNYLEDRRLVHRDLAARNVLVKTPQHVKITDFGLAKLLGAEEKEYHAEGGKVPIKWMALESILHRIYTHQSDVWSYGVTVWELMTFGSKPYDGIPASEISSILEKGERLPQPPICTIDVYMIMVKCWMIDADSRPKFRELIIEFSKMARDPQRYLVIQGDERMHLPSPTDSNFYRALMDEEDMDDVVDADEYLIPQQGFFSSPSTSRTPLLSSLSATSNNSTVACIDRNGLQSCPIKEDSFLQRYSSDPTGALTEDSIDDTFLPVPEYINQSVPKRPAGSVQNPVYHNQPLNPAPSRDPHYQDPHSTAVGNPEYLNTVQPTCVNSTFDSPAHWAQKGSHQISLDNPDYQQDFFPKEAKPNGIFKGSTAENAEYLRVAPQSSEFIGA
Summary of the method: as §1

EGFR wild type = target: T7, EGFR wild type (Homo sapiens, UniProt P00533); experiment: Inhibition of EGFR wild type biochemical enzymatic activity (HTRF); details: EGFR wild type, 1 mM ATP, 1 h at room temperature, read-out: IC50 @WT
T7 construct: purchased Carna Bio
Summary of the method: as §1

EGFR L858R = target: T8, EGFR L858R (Homo sapiens, UniProt P00533, L858R); experiment: Inhibition of EGFR L858R biochemical enzymatic activity (HTRF); details: 1 mM ATP, 1 h at room temperature, read-out: IC50 @L858R
T8 construct: purchased Carna Bio
T8 sequence (P00533 25-1210 L858R): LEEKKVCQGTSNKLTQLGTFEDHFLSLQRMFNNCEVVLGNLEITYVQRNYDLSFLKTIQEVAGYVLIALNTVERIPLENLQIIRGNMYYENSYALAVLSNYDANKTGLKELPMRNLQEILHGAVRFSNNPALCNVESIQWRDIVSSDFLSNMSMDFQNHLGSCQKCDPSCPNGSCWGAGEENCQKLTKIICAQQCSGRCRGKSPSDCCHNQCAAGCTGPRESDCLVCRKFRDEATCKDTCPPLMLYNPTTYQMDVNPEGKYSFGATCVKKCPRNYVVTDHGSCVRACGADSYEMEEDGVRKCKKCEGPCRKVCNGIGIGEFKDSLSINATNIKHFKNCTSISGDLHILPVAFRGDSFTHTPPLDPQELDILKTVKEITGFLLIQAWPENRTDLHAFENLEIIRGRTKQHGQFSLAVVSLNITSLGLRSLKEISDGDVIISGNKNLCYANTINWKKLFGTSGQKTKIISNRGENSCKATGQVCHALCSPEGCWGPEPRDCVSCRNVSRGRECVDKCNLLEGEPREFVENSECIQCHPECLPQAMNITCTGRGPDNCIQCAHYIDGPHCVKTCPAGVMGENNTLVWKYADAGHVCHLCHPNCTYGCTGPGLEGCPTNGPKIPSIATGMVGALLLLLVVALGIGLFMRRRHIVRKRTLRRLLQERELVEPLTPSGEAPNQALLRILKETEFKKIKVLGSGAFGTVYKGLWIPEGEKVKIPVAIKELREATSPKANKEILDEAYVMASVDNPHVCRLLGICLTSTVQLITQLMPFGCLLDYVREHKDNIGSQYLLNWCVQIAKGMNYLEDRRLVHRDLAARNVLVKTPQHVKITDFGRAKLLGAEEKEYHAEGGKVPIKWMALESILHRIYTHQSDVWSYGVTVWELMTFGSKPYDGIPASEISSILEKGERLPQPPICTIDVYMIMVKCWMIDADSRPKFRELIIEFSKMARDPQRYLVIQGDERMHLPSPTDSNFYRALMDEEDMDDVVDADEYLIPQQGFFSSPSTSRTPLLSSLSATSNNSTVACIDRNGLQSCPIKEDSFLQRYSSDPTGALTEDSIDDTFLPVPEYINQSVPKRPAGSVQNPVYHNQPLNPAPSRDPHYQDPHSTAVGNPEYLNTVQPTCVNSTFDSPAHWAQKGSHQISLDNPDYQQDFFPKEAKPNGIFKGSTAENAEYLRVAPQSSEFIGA
Summary of the method: as §1

[1] = system: Ba/F3 cells expressing EGFR mutations; experiment: Cell proliferation assay, Ba/F3 cells expressing EGFR mutations (CellTiter-Glo, 72 hours); type: cell-based
Summary of the method: (§2)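 Cells are exposed to graded compound concentrations after overnight plating, using 500 PC-9 or 5000 Ba/F3 per well. Baseline-subtracted viability is compared with vehicle to give percent proliferation, then GI50.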

PC-9 = experiment: Cell proliferation assay, PC-9 cells (CellTiter-Glo, 72 hours); type: cell-based; details: PC9 cells, read-out: GI50 PC9
Summary of the method: as §2

[2] = target: T9, EGFR[T790M/C797S/d746-750] (Homo sapiens, UniProt P00533, C797S/DEL746-750/T790M); experiment: Inhibition of EGFR[T790M/C797S/d746-750] biochemical enzymatic activity (HTRF); details: EGFR[T790M/C797S/d746-750], 1 mM ATP, 1 h at room temperature, read-out: IC50 @T790M - C797S - Del19
T9 construct: purchased Carna Bio
Summary of the method: as §1

[3] = BaF3 cells, EGFR DEL19 - C797S, read-out: GI50 DEL19 - C797S/BaF3
[4] = BaF3 cells, EGFR DEL19 - T790-C797S, read-out: GI50 DEL19 - T790-C797S/BaF3
[5] = BaF3 cells, EGFR L858R - C797S, read-out: GI50 L858R - C797S/BaF3
[6] = BaF3 cells, EGFR L858R - T790-C797S, read-out: GI50 L858R - T790-C797S/BaF3
[7] = BaF3 cells, EGFR L858R - T790M, read-out: GI50 L858R - T790M/BaF3
[8] = BaF3 cells, EGFR L858R, read-out: GI50 L858R/BaF3
[9] = EGFR DEL19 - T790M, read-out: GI50 DEL19 - T790M

SMILES	IC50 (EGFR Exon19Del)	IC50 (EGFR (C797S L858R))	IC50 (EGFR[T790M/C797S/L858R])	IC50 (EGFR L858R/T790M)	IC50 (EGFR Exon19Del/T790M)	IC50 (EGFR (d746-750 C797S))	IC50 (EGFR wild type)	IC50 (EGFR L858R)	GI50 [1, 3]	GI50 [1, 4]	GI50 [1, 5]	GI50 [1, 6]	GI50 [1, 7]	GI50 [1, 8]	GI50 [1, 9]	GI50 (PC-9)	IC50 [2]
Cc1cc2cc(n1)-c1cnn(C)c1OCCN1CC3CCC(C3)(C1)n1c(nc3ccc(N4CCC5(CN(C)C5)C4)cc31)NC2=O (single isomer, unassigned) [Example B50A]	> 5000 nM	> 5000 nM	> 5000 nM	> 5000 nM	2290 nM	> 5000 nM	> 5000 nM	> 5000 nM	302 nM	437 nM	741 nM	52 nM	320 nM	1280 nM	377 nM	1550 nM	748 nM
Cc1cc2cc(n1)-c1cnn(C)c1OCCN1CC3CCC(C3)(C1)n1c(nc3ccc(N4CC5CC4CN5C)cc31)NC2=O (single isomer, unassigned) [Example B53A]	> 5000 nM	> 5000 nM	> 5000 nM	> 5000 nM	3320 nM	4350 nM	> 5000 nM	> 5000 nM	348 nM	419 nM	1070 nM	91 nM	383 nM	2570 nM	388 nM	3040 nM	1080 nM
Cc1cc2cc(n1)-c1cnn(C)c1OCCN1CC3CCC(C3)(C1)n1c(nc3ccc(N4CCC(N5CCN(C)CC5)CC4)cc31)NC2=O (single isomer, unassigned) [Example B59A]	> 5000 nM	> 5000 nM	> 5000 nM	> 5000 nM	1140 nM	> 5000 nM	> 5000 nM	> 5000 nM	227 nM	474 nM	751 nM	144 nM	299 nM	1130 nM	788 nM	930 nM	514 nM
